According to article PMC10974276, “Physiological Functions of the Cello-Oligosaccharides Binding CebE in the Pathogenic Streptomyces sp. AMCC400023” (Microorganisms, 2024):

What was measured:
[1] = target: T1, CebE^5601; assay: microscale thermophoresis; assay type: binding, Streptomyces sp. AMCC400023; conditions: 25 °C; protein 800 nM, dye-labelled; ligand series from 100 µM
T1 construct: N-terminal His tag (pET28a); E. coli BL21(C43); Ni-NTA; labelled with red fluorescent dye

[2] = target: T2, CebE^7671; assay: microscale thermophoresis; assay type: binding, Streptomyces sp. AMCC400023; conditions: 25 °C; protein 800 nM, dye-labelled; ligand series from 270 mM
T2 construct: N-terminal His tag (pET28a); E. coli BL21(C43); Ni-NTA

Structure (SMILES)	Kd [1]	Kd [2]
OC[C@H]1O[C@@H](O[C@H]2[C@H](O)[C@@H](O)C(O)O[C@@H]2CO)[C@H](O)[C@@H](O)[C@@H]1O (stereo partly shown) [cellobiose]	977 nM	1.28 mM
OC[C@H]1O[C@@H](O[C@H]2[C@H](O)[C@@H](O)[C@H](O[C@H]3[C@H](O)[C@@H](O)C(O)O[C@@H]3CO)O[C@@H]2CO)[C@H](O)[C@@H](O)[C@@H]1O (stereo partly shown) [cellotriose]	1610 nM	2.72 mM
